In paper PMC10412585 (Nature Communications, 2023):

Assays:
[1] = test system: NKG2A+/NKG2C- NK cells; test: NK cell activation assay with peptide-pulsed K562/HLA-E cells, NKG2A+/NKG2C- NK cells; format: cell-based, human; details: K562/HLA-E target cells, 300 µM peptide ([…] µM BFAR263-271), E:T 2:1, 6 h; degranulation (CD107a), IFN-γ, TNF, CCL3; flow cytometry
[2] = molecular target: T1, CD94/NKG2A (Homo sapiens, UniProt P26715+Q13241); test: CD94/NKG2A tetramer staining of yeast-displayed peptide-HLA-E; format: binding; details: yeast-displayed single chain trimer, 500 nM tetramer, 2 h, 4 °C, flow cytometry
T1 construct: The C-terminus of human NKG2A or NKG2C ectodomain was connected via a GGSGGS linker to human CD94 ectodomain; AviTag biotinylation tag (C); poly-histidine tag (C); made in house; host or cells: baculovirus, High Five (Hi5) insect cells
T1 sequence (Q13241 whole entry, looked up, the tested form may be a part): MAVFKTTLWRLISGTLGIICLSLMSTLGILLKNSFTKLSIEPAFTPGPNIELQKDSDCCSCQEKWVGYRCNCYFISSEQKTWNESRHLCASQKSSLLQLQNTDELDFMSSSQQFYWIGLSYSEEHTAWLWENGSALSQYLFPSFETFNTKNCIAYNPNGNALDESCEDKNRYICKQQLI
T1 sequence (P26715 whole entry, looked up, the tested form may be a part): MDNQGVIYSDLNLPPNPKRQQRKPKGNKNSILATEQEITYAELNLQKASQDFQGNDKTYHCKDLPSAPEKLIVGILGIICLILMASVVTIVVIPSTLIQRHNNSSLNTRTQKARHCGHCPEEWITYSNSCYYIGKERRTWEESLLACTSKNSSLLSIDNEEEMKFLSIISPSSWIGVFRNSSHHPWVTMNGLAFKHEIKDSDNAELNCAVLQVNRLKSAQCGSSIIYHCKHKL
Text: (§1) To study the diversity of the HLA-E peptide repertoire recognized by CD94/NKG2x, we adapted an MHC yeast surface display system previously used to study class Ia MHC-restricted TCR recognition[25],[26]. In this system, peptide, Beta-2-microglobulin (β2M), and MHC heavy chain are covalently linked to each other and fused to the N-terminus of the yeast mating factor protein Aga2p (Fig. 1A, B). The HLA-E single chain trimer construct expressed well on the yeast surface, as confirmed via staining for an included hemagglutinin (HA) epitope tag and via an anti-HLA-E antibody (Fig. 1C). Since epitope tag staining assesses construct expression rather than protein fold[27]–[29], we tested peptide-HLA-E (pHLA-E) fold by staining with its cognate NK receptors. […] (Supplemental Fig. 1A, E–G), though both receptors were able to bind and enable selective enrichment of […]/HLA-E-expressing yeast using avid streptavidin-coated beads (Supplemental Fig. 1B–D).
(§2) To stain peptide-HLA-E (pHLA-E) with CD94/NKG2x tetramers, each biotinylated receptor was mixed with streptavidin coupled to AlexaFluor647 (SAV-647, made in-house) at a 5:1 ratio and incubated for 5 min on ice. Yeast were stained with 500 nM tetramer for 2 h at 4 °C in the dark with rotation. […]

[3] = test system: CD94/NKG2C; test: CD94/NKG2C tetramer and dextramer staining of yeast-displayed peptide-HLA-E; format: binding, human; details: yeast-displayed single chain trimer, 500 nM tetramer, 2 h, 4 °C, flow cytometry
Text: as §1, §2

CD94/NKG2A tetramer staining [2] | Sequence | inhibitory effects on NKG2A+ cells [1] | CD94/NKG2C tetramer and dextramer staining [3]
– | VNPGRSLFL [BFAR263-271, human peptide from Bifunctional apoptosis regulator] | minimal inhibitory effects | –
positively stained cells | VMAPRTLFL [positive control] | – | minimal signal
